US12414959B2, “Glucose infusion solution composition” (priority 2017, dated 2025)
In brackets after ≈: the same amount, converted by molar mass.

What was measured:
[1] = cited from earlier work
[2] = Preparation of clear sugar mixture solutions: clearness of dissolution; assay type: physicochemical; conditions: added in an amount of two times the solubility until colorless, water for injection, room temperature
Method: Then, each sugar was added to 2 ml of water for injection, and stirred at room temperature until a clear solution was obtained. […] In addition, a sample was prepared by doubling the amount of sample F1, and the clearness of the solution was observed (F2).

[3] = Preliminary experiment on amino acids excluded from the test; assay type: physicochemical
[4] = Stabilizer test (sodium bisulfite, EDTA-2Na dihydrate): color, pH and osmolality over 10 days
Method: First, 200 μl of sample F6 was added to 1800 μl of water for injection, and then stirred at room temperature, thereby preparing six samples, each consisting of 2 ml of a 10-fold-diluted sugar solution (samples a, a-1, b, b-1, c and c-1).
Next, the pH of each of the six samples was measured, and then adjusted with NaOH so as to be close to in vivo plasma pH 7.4.
A 0.1% solution of sodium bisulfite was prepared by mixing 5 mg of sodium bisulfite as stabilizer with 5 ml of water for injection, and a 0.2% solution of EDTA-2Na dihydrate was prepared by mixing 10 mg of EDTA-2Na dihydrate with 5 ml of water for injection. Then, 110 μl of each of the prepared solutions was added to some of the six 10-fold-diluted sugar solutions.

clearness of dissolution [2]	SMILES	Solubility (Colorless): Solubility until colorless [1]	Solubility (Maximum): A maximum of solubility [1]	initial osmolality variation when added [3]	suitability as stabilizer for sample F6 [4]
not clearly dissolved	CC(=O)N[C@H]1[C@H]([C@H](O)[C@H](O)CO)OC(O)(C(=O)O)C[C@@H]1O (stereo partly drawn) [N-Acetyl neuraminic acid, N-acetylneuraminic acid]	50 mg/mL (≈ 162 mM)	50 mg/mL	–	–
clearly dissolved	O=C[C@H](O)[C@@H](O)[C@@H](O)[C@H](O)CO [Galactose, galactose]	100 mg/mL (≈ 555 mM)	683 mg/mL	–	–
clearly dissolved	CC(=O)N[C@H]1C(O)O[C@H](CO)[C@H](O)[C@@H]1O (stereo partly drawn) [N-Acetyl galactosamine, N-acetylgalactosamine]	50 mg/mL (≈ 226 mM)	100 mg/mL	–	–
–	N[C@@H](CS)C(=O)O [cysteine]	–	–	excessively high	–
clearly dissolved	C[C@H](O)[C@@H](O)[C@@H](O)[C@H](O)C=O [L-Fucose, L-fucose]	50 mg/mL (≈ 305 mM)	827 mg/mL	–	–
–	O.O.O=C([O-])CN(CCN(CC(=O)O)CC(=O)O)CC(=O)[O-].[Na+].[Na+] [EDTA-2NA dihydrate, disodium edetate dihydrate]	–	–	–	not suitable
clearly dissolved	O=C[C@H](O)[C@@H](O)[C@H](O)[C@H](O)CO [Glucose, glucose]	133 mg/mL (≈ 738 mM)	–	–	–
–	O=S([O-])O.[Na+] [sodium bisulfite]	–	–	–	not suitable
–	N[C@@H](Cc1c[nH]c2ccccc12)C(=O)O [tryptophan]	–	–	excessively high	–
clearly dissolved	CC(=O)N[C@H]1C(O)O[C@H](CO)[C@@H](O)[C@@H]1O (stereo partly drawn) [N-Acetyl glucosamine, N-acetylglucosamine]	50 mg/mL (≈ 226 mM)	50 mg/mL	–	–
not clearly dissolved	O=C[C@H](O)[C@@H](O)[C@H](O)CO [Xylose, xylose]	50 mg/mL (≈ 333 mM)	100 mg/mL	–	–
